Reference: patent publication US20200291018A1, “TAM KINASE INHIBITORS” (SYROS PHARMACEUTICALS, INC., priority 2017, published 2020)

Legend:
MERTK = molecular target: T1, MERTK (Homo sapiens, UniProt Q12866); test: TR-FRET kinase activity assay, MERTK; type: biochemical; settings: for IC50: TR-FRET activity assay, ATP at Km, 60 minutes, read-out: Mer IC50; for Mer/Flt3 ratio (FLT3 IC50/Mer IC50): ratio calculated as FLT3 IC50/Mer IC50
T1 sequence (Q12866 21-999): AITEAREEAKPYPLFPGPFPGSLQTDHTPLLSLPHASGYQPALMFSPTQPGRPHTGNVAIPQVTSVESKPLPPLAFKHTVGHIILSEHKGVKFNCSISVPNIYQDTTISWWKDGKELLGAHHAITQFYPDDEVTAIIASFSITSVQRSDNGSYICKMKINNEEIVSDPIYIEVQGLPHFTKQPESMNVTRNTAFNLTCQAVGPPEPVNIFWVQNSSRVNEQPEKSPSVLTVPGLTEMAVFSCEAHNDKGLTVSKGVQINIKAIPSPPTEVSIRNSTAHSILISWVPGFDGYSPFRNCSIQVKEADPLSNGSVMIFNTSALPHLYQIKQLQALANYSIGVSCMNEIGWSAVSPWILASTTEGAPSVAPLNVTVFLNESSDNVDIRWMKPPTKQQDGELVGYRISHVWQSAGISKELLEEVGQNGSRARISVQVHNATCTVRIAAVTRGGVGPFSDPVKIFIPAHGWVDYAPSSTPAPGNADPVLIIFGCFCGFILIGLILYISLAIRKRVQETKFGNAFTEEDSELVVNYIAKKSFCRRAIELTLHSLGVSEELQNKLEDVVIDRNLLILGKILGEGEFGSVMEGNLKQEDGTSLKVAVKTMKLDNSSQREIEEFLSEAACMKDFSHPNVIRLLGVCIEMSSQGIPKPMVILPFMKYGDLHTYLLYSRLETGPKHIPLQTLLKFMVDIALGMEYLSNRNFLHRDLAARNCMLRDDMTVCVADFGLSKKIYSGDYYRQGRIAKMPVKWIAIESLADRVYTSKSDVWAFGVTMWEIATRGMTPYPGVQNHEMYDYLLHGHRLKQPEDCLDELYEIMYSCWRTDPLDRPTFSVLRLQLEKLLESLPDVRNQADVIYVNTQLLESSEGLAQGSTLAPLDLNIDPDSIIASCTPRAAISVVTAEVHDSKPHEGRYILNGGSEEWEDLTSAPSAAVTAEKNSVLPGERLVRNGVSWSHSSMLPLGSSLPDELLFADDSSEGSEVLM
Procedure, shortened: (§1)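 Each kinase phosphorylates a fluorescently labeled peptide on tyrosine in the presence of compound, with ATP at its Km, for 60 min at RT in HEPES pH 7.5 buffer with MgCl2, EGTA, Brij 35 and DTT. Product is detected by TR-FRET with a Europium-labeled phospho-specific antibody; IC50 values follow.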

AXL = molecular target: T2, AXL (Homo sapiens, UniProt P30530); test: TR-FRET kinase activity assay, AXL; type: biochemical; settings: ATP at Km, 60 minutes
T2 sequence (P30530 26-894): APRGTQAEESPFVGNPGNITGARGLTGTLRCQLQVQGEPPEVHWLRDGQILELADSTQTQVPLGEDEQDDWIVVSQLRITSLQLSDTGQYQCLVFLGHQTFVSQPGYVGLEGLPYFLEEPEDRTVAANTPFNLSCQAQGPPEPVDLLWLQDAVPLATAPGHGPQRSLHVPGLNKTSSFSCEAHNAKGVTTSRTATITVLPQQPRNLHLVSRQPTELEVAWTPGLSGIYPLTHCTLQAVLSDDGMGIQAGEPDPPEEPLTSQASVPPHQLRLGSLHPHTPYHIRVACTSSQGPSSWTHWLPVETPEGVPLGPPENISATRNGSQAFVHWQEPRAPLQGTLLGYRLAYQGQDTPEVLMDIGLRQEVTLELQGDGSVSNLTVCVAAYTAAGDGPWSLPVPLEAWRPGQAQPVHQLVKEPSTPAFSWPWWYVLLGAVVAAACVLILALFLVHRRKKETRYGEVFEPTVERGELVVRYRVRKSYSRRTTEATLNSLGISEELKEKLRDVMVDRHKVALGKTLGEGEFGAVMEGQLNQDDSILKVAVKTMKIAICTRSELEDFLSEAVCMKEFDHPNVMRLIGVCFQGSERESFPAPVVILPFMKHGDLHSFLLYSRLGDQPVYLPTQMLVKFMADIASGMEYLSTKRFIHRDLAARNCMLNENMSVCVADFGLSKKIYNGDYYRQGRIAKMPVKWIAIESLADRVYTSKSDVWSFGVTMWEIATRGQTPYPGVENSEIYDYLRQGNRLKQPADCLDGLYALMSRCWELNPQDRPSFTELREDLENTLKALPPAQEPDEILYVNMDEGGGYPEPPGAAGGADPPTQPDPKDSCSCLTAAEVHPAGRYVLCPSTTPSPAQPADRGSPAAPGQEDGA
Procedure, shortened: as §1

IC50 (MERTK) [nM] | Mer/Flt3 ratio (FLT3 IC50/Mer IC50) (MERTK) | IC50 (AXL) [nM] | SMILES
≤ 100 | ++ (a ratio of between 10 and 100) | 100 to 1000 | O[C@H]1CC[C@H](c2cnc(OC3CCOCC3)c3cnc(N[C@H]4CCC(F)(F)C4)nc32)CC1 [Compound 336]
≤ 100 | +++ (a ratio of >100) | 1000 to 10000 | COC[C@H](C)Nc1ncc2c(OC3CCOCC3)ncc(-c3ccc(N)nc3)c2n1 [Compound 337]
≤ 100 | +++ (a ratio of >100) | 1000 to 10000 | C[C@H](CC(F)(F)F)Nc1ncc2c(OC3CCOCC3)ncc([C@H]3CC[C@H](O)CC3)c2n1 [Compound 338]
≤ 100 | +++ (a ratio of >100) | 100 to 1000 | CCC1(Nc2ncc3c(OC4CCOCC4)ncc([C@H]4CC[C@H](O)CC4)c3n2)CC1 [Compound 339]
≤ 100 | +++ (a ratio of >100) | 1000 to 10000 | CNC(=O)N[C@H]1CC[C@H](c2cnc(OC3CCOCC3)c3cnc(N[C@@H](C)COC)nc32)CC1 [Compound 340]
≤ 100 | +++ (a ratio of >100) | 1000 to 10000 | CNS(=O)(=O)N1CCC(c2cnc(OC3CCOCC3)c3cnc(N[C@@H](C)COC)nc23)CC1 [Compound 341]
1000 to 10000 | + (a ratio of >2.0 and <10) | 1000 to 10000 | COC[C@H](C)Nc1ncc2c(OC3CCOCC3)ncc(-c3ccnnc3)c2n1 [Compound 342]
≤ 100 | +++ (a ratio of >100) | 100 to 1000 | COC[C@H](C)Nc1ncc2c(OC3CCN(c4ncccn4)CC3)ncc([C@H]3CC[C@H](O)CC3)c2n1 [Compound 344]
100 to 1000 | ++ (a ratio of between 10 and 100) | 1000 to 10000 | CNC(=O)N1CCC(c2cnc(OC3CCOCC3)c3cnc(N[C@@H](C)COC)nc23)CC1 [Compound 345]
100 to 1000 | + (a ratio of >2.0 and <10) | 1000 to 10000 | COC[C@H](C)Nc1ncc2c(OC3CCOCC3)ncc(C3CCCCN3)c2n1 (stereo partly drawn) [Compound 346]
100 to 1000 | + (a ratio of >2.0 and <10) | 1000 to 10000 | COC[C@H](C)Nc1ncc2c(OC3CCOCC3)ncc(-c3cn[nH]c3)c2n1 [Compound 347]
≤ 100 | +++ (a ratio of >100) | 100 to 1000 | COC[C@H](C)Nc1ncc2c(C3CC3)ncc([C@H]3CC[C@H](O)CC3)c2n1 [Compound 349]
100 to 1000 | ++ (a ratio of between 10 and 100) | 1000 to 10000 | COC[C@H](C)Nc1ncc2c(OC3CCOCC3)ncc(C3CCCCN3C)c2n1 (stereo partly drawn) [Compound 350]
≤ 100 | +++ (a ratio of >100) | 1000 to 10000 | COC[C@@H](C)Nc1ncc2c(OC3CC(O)C3)ncc([C@H]3CC[C@H](O)CC3)c2n1 (stereo partly drawn) [Compound 351]
≤ 100 | +++ (a ratio of >100) | 100 to 1000 | C[C@@H](CC(F)(F)F)Nc1ncc2c(OC3CCN(C)CC3)ncc([C@H]3CC[C@H](O)CC3)c2n1 [Compound 352]
1000 to 10000 | + (a ratio of >2.0 and <10) | 1000 to 10000 | O=C(O)[C@H]1CC[C@@H](Nc2ncc3c(OC4CCOCC4)ncc([C@H]4CC[C@H](O)CC4)c3n2)CC1 [Compound 353]
≤ 100 | +++ (a ratio of >100) | 1000 to 10000 | COC[C@H](C)Nc1ncc2c(O[C@@H]3CCOC3)ncc([C@H]3CC[C@H](O)CC3)c2n1 [Compound 354]

SMILES | IC50 (MERTK) [nM] | Mer/Flt3 ratio (FLT3 IC50/Mer IC50) (MERTK) | IC50 (AXL) [nM]
COC[C@H](C)Nc1ncc2c(OC3C[C@H]4CC[C@@H](C3)N4C)ncc([C@H]3CC[C@H](O)CC3)c2n1 (stereo partly drawn) [Compound 343] | ≤ 100 | +++ (a ratio of >100) | 100 to 1000
